How the values were obtained:
[1] = target: T1, FLT3 (Homo sapiens, UniProt P36888); assay: TR-FRET kinase activity assay, FLT3; type: biochemical; conditions: ATP at Km, 60 minutes
T1 sequence (P36888 27-993): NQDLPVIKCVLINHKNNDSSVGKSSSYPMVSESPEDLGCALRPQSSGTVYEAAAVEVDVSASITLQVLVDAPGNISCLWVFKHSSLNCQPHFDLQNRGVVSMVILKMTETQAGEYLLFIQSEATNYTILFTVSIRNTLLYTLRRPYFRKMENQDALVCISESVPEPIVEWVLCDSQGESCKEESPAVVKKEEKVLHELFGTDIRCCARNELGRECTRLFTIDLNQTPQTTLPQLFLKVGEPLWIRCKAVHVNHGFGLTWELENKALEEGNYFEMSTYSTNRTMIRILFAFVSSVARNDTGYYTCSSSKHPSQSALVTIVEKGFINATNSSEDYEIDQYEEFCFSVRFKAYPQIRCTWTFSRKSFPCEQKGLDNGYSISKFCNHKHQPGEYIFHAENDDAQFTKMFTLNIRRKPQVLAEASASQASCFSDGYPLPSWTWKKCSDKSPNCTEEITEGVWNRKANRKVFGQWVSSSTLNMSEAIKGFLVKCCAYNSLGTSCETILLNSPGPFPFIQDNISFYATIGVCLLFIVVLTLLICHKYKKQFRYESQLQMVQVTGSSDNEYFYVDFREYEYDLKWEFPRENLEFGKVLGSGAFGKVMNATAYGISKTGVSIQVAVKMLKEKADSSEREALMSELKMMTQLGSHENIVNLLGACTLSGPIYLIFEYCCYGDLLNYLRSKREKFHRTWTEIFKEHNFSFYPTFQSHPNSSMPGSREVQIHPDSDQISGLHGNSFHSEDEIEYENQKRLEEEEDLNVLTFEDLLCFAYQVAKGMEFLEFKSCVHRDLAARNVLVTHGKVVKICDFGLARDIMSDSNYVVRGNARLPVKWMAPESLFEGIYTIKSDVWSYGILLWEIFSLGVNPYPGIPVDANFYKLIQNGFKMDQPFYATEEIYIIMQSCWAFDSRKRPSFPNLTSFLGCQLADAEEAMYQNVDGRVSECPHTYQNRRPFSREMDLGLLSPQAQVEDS
How it was run: (§1)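 Inhibition is measured as loss of phospho-peptide formation: kinase, fluorescent tyrosine peptide and compound are combined, ATP is added at Km, and the reaction proceeds 60 min at RT in pH 7.5 HEPES buffer. An EDTA stop and Eu-labelled phospho-specific antibody allow TR-FRET detection for IC50 fitting.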

[2] = target: T2, MERTK (Homo sapiens, UniProt Q12866); assay: TR-FRET kinase activity assay, MERTK; type: biochemical; conditions: for IC50: TR-FRET activity assay, ATP at Km, 60 minutes, read-out: Mer IC50; for FLT3/Mer ratio (FLT3 IC50/Mer IC50): ratio of Mer to FLT3: FLT3 IC50/Mer IC50
T2 sequence (Q12866 21-999): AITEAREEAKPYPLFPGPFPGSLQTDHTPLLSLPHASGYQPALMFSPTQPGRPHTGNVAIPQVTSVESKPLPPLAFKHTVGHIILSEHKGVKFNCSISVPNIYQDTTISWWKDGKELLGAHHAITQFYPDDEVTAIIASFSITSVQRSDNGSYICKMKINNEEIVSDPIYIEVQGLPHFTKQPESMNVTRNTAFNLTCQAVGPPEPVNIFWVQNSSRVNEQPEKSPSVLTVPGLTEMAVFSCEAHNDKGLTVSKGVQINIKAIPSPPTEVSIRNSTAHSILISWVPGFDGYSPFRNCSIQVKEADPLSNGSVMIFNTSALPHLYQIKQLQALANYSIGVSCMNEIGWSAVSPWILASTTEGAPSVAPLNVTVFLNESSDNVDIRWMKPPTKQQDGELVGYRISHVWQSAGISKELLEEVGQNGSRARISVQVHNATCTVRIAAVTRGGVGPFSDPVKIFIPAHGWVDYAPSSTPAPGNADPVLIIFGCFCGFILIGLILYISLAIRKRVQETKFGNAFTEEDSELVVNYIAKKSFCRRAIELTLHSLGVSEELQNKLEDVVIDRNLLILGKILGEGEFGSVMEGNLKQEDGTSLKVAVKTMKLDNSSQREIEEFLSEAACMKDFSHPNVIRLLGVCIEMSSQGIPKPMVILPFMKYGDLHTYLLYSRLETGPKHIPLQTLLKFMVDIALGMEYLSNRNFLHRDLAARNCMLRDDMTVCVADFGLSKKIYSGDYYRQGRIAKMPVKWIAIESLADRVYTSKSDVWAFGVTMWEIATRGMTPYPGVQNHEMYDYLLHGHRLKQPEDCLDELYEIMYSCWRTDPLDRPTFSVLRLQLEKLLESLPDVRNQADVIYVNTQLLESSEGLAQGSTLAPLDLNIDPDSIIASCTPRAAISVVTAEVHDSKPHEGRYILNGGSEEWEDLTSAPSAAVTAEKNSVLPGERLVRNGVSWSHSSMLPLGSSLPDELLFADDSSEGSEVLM
How it was run: as §1

| SMILES | IC50 [1] | IC50 [2] | FLT3/Mer ratio (FLT3 IC50/Mer IC50) [2] |
| --- | --- | --- | --- |
| CN1CCN(Cc2ccc(-c3cc(C4CCC(O)CC4)n4nc(NC5CCC5(C)C)ncc34)cc2)CC1 (mixture of isomers) [Compound 121] | 100 to 1000 nM | ≤ 100 nM | ++ (“++” represents a ratio of between 10 and 100) |
| COCC(C)Nc1ncc2c(C3CCN(C(C)=O)C3)cc(C3CCC(O)CC3)n2n1 (mixture of isomers) [Compound 383] | 1000 to 10000 nM | ≤ 100 nM | +++ (“+++” represents a ratio of >100) |
| COC[C@H](C)Nc1ncc2c(-c3ccc(CN4CCN(C)CC4)cc3)cc([C@H]3CC[C@H](O)CC3)n2n1 (single isomer, unassigned) [Compound 124] | 100 to 1000 nM | ≤ 100 nM | ++ (“++” represents a ratio of between 10 and 100) |
| CC[C@H](C)Nc1ncc2c(-c3cncc(S(C)(=O)=O)c3)cc([C@H]3CC[C@H](O)CC3)n2n1 [Compound 119] | 1000 to 10000 nM | ≤ 100 nM | +++ (“+++” represents a ratio of >100) |
| CC[C@H](C)Nc1ncc2c(-c3cncc(S(C)(=O)=O)c3)cc([C@H]3CC[C@@H](O)CC3)n2n1 [Compound 120] | 1000 to 10000 nM | ≤ 100 nM | +++ (“+++” represents a ratio of >100) |
| CCCCC[C@H](C)Nc1ncc2c(C3=CCC(C(=O)O)CC3)cc([C@H]3CC[C@H](O)CC3)n2n1 (stereo partly drawn) [Compound 122, 4-(2-((S)-heptan-2-ylamino)-7-((trans)-4-hydroxycyclohexyl)pyrrolo[2,1-f][1,2,4]triazin-5-yl)cyclohex-3-enecarboxylic acid] | 100 to 1000 nM | ≤ 100 nM | +++ (“+++” represents a ratio of >100) |
| CCC(C)Nc1ncc2c(C)cc(C3CCC(O)CC3)n2n1 (stereo not drawn) [Compound 123] | 1000 to 10000 nM | ≤ 100 nM | +++ (“+++” represents a ratio of >100) |
| CCCCC[C@H](C)Nc1ncc2c([C@H]3CC[C@@H](C(=O)O)CC3)cc([C@H]3CC[C@H](O)CC3)n2n1 [Compound 125, (cis)-4-(2-((S)-heptan-2-ylamino)-7-((trans)-4-hydroxycyclohexyl)pyrrolo[2,1-f][1,2,4]triazin-5-yl)cyclohexanecarboxylic acid] | 1000 to 10000 nM | ≤ 100 nM | ++ (“++” represents a ratio of between 10 and 100) |
| C[C@@H](CC(F)(F)F)Nc1ncc2c(-c3ccnc(N4CCOCC4)c3)cc([C@H]3CC[C@H](O)CC3)n2n1 [Compound 346] | ≤ 100 nM | ≤ 100 nM | +++ (“+++” represents a ratio of >100) |
| CNC(=O)c1ncc(-c2cc([C@H]3CC[C@H](O)CC3)n3nc(N[C@@H](C)CC(F)(F)F)ncc23)cn1 [Compound 347] | ≤ 100 nM | ≤ 100 nM | +++ (“+++” represents a ratio of >100) |
| COC[C@H](C)Nc1ncc2c(-c3cnn([C@H]4CCNC4=O)c3)cc([C@H]3CC[C@H](O)CC3)n2n1 [Compound 348] | 100 to 1000 nM | ≤ 100 nM | +++ (“+++” represents a ratio of >100) |
| COC[C@H](C)Nc1ncc2c(-c3cc([C@H]4CC[C@H](O)CC4)n4nc(N[C@@H](C)COC)ncc34)cc([C@H]3CC[C@H](O)CC3)n2n1 [Compound 349] | 1000 to 10000 nM | ≤ 100 nM | +++ (“+++” represents a ratio of >100) |
| CC(C)Nc1ncc2c(-c3ccnc(N4CCOCC4)c3)cc([C@H]3CC[C@H](O)CC3)n2n1 [Compound 350] | ≤ 100 nM | ≤ 100 nM | +++ (“+++” represents a ratio of >100) |
| C[C@@H](CC(F)F)Nc1ncc2c(-c3cnn(C4COC4)c3)cc([C@H]3CC[C@H](O)CC3)n2n1 [Compound 351] | ≤ 100 nM | ≤ 100 nM | ++ (“++” represents a ratio of between 10 and 100) |
| CC(CC(F)F)Nc1ncc2c(-c3ccc(CN4CCN(C)CC4)cc3)cc(C3CCC(O)CC3)n2n1 (stereo not drawn) [Compound 352] | ≤ 100 nM | ≤ 100 nM | ++ (“++” represents a ratio of between 10 and 100) |
| CNC(=O)c1cc(-c2cc([C@H]3CC[C@H](O)CC3)n3nc(N[C@@H](C)CC(F)(F)F)ncc23)cc(C)n1 [Compound 353] | 100 to 1000 nM | ≤ 100 nM | +++ (“+++” represents a ratio of >100) |
| CNc1cc(-c2cc([C@H]3CC[C@H](O)CC3)n3nc(N[C@@H](C)COC)ncc23)ccn1 [Compound 354] | 100 to 1000 nM | ≤ 100 nM | +++ (“+++” represents a ratio of >100) |
| COC[C@H](C)Nc1ncc2c(-c3ccnc(N4CCOCC4)c3)cc([C@H]3CC[C@H](O)CC3)n2n1 [Compound 355] | ≤ 100 nM | ≤ 100 nM | + (“+” represents a ratio of >2.0 and <10) |
| OC1CCC(c2cc(-c3ccnc(N4CCOCC4)c3)c3cnc(NC4CCOC4)nn23)CC1 (stereo not drawn) [Compound 356] | ≤ 100 nM | ≤ 100 nM | ++ (“++” represents a ratio of between 10 and 100) |
| COC[C@H](C)Nc1ncc2c(-c3ccnc(N4CCS(=O)(=O)CC4)c3)cc([C@H]3CC[C@H](O)CC3)n2n1 [Compound 357] | 100 to 1000 nM | ≤ 100 nM | +++ (“+++” represents a ratio of >100) |
| COC[C@H](C)Nc1ncc2c(-c3ccnc(OC4COC4)c3)cc([C@H]3CC[C@H](O)CC3)n2n1 [Compound 358] | 1000 to 10000 nM | ≤ 100 nM | +++ (“+++” represents a ratio of >100) |
| OC1CCC(c2cc(-c3ccnc(N4CCOCC4)c3)c3cnc(NCCC4CC4)nn23)CC1 (stereo not drawn) [Compound 359] | ≤ 100 nM | ≤ 100 nM | + (“+” represents a ratio of >2.0 and <10) |
| CNS(=O)(=O)c1ccc(-c2cc([C@H]3CC[C@H](O)CC3)n3nc(N[C@@H](C)CC(F)(F)F)ncc23)cn1 [Compound 360] | ≤ 100 nM | ≤ 100 nM | ++ (“++” represents a ratio of between 10 and 100) |
| CNOc1cc(-c2cc([C@H]3CC[C@H](O)CC3)n3nc(N[C@@H](C)COC)ncc23)ccn1 [Compound 361] | 1000 to 10000 nM | ≤ 100 nM | +++ (“+++” represents a ratio of >100) |
| O[C@H]1CC[C@H](c2cc(-c3ccnc(N4CCOCC4)c3)c3cnc(N[C@H]4CCOC4)nn32)CC1 [Compound 362] | ≤ 100 nM | ≤ 100 nM | ++ (“++” represents a ratio of between 10 and 100) |
| O[C@H]1CC[C@H](c2cc(-c3ccnc(N4CCOCC4)c3)c3cnc(NCCC(F)(F)F)nn32)CC1 [Compound 363] | ≤ 100 nM | ≤ 100 nM | + (“+” represents a ratio of >2.0 and <10) |

Source: US11040981B2, “Pyrrolotriazine compounds and methods of inhibiting TAM kinases” (Syros Pharmaceuticals, Inc., priority 2017, dated 2021)
